{"source": "patent US5696153A", "about": "“Therapeutic regimen for treating patients” (priority 1996, dated 1997)", "key": {"[1]": {"test_system": "SK-N-AS neuroblastoma tumor in nude mice", "format": "in vivo", "from_the_text": "Five nude mice were maintained in each cage with a fiberglass bonnet in a clean isolation room. All cages and food were sterilized prior to use. Female nude mice were inoculated subcutaneously with 3×10^6 human neuroblastoma (SK-N-AS) tumor cells. Between 8-16 days, tumor growth was evident and measured."}, "[2]": {"test": "Toxicity in nude mice (wasting, weight loss)", "format": "in vivo"}, "[3]": {"test_system": "VA-MG-SL glioblastoma cells", "test": "cells", "conditions": "for cytotoxicity at 0.1 µg/mL / cytotoxicity at 1 µg/mL: Homo sapiens, 120 h", "excerpt": "(§1) Cell lines tested included: Glioblastoma cell lines VA-MG-SL and U-373-MG, neuroblastoma cell lines SK-N-AS, SK-N-FI and VA-N-BR, and two primitive neuroectodermal tumor cell lines SK-N-LO and SK-PN-DW at different concentrations. All cell lines were personally established from patients and cultured except U-373-MG (obtained from the American Type Culture Collection, Rockville, […]., USA). The cell lines SK-N-AS, SK-N-FI, SK-N-LO and SK-PN-DW have been reported in several publications and are believed to be representative of their respective lineages.\n(§2) Stock cells in 25 cm^2 flasks were incubated in Dubelco's modified Eagle's medium (Sigma, St. Louis, Mo.) containing 10% fetal bovine serum at 37° C. and 5% CO2 in air for 5 days. Media was renewed on the sixth day and on the seventh day the cells were detached into a single cell suspension with trypsin EDTA, counted and aliquots plated at 3000 to 5000 cells in 0.1 ml fresh media in separate wells of a 96-well microliter plate (Becton-Dickinson Labware, Lincoln Park, N.J.). […] Six replicate wells were used in every experiment as controls and for each test concentration. Each experiment was repeated three separate times. Viability of the cell lines 5 days after exposure to drugs was determined by the MTT assay following published procedures.\n(§3) Cytocidal activity was defined when the number of cells or the MTT surrogate optical density value was less than the initial inoculum. This is usually the case when ≥80% toxicity is recorded under these in vitro conditions.\n(§4) Differences were considered to be statistically significant for a p-value of 0.05 or less."}, "[4]": {"test_system": "VA-N-BR neuroblastoma cells", "test": "cells", "conditions": "Neuroblastoma cell; for cytotoxicity at 0.1 µg/mL / cytotoxicity at 1 µg/mL: Homo sapiens, 120 h", "excerpt": "as §1, §2, §3, §4"}, "[5]": {"test_system": "SK-N-FI neuroblastoma cells", "test": "cells", "conditions": "for cytotoxicity at 0.1 µg/mL / cytotoxicity at 1 µg/mL: 120 h", "excerpt": "as §1, §2, §3, §4"}, "[6]": {"test_system": "U-373-MG glioblastoma cells", "test": "cells", "conditions": "Homo sapiens, U373 MG; for cytotoxicity at 0.1 µg/mL / cytotoxicity at 1 µg/mL: 120 h", "excerpt": "as §1, §2, §3, §4"}, "[7]": {"test": "Human toxicity, Q4D schedule (Study X)", "format": "in vivo, human patients", "excerpt": "[…] It should be understood that these patients were deemed \"salvage\" cases almost all of whom had not responded to conventional treatment. All were otherwise thought to be beyond approved therapeutic regimens. Thus, the results and evaluation are anecdotal in nature and are not part of a controlled and statistical valid clinical trial.\n[…] All were previously treated with chemotherapy and radiation for cancers of the breast (5), ovarian (2), brain (3), prostate (1), head and neck (4), bone (2), leiomyosarcoma (2), and melanoma (1)."}, "[8]": {"conditions": "read-out: concentration at which cell line was affected"}}, "note": "Like-named read-outs stand apart in the source and are kept apart here.", "data": [{"smiles": "CC(=O)O[C@H]1C(=O)[C@@]2(C)[C@H]([C@H](OC(=O)c3ccccc3)[C@]3(O)C[C@H](OC(=O)[C@H](O)[C@@H](NC(=O)c4ccccc4)c4ccccc4)C(C)=C1C3(C)C)[C@]1(OC(C)=O)CO[C@@H]1C[C@@H]2O", "note": "[taxol]", "values": [{"measurement": "antitumor activity in words", "setting": "[1]; 10 mg/kg IP Q4D×3", "result": "antitumor activity ranging from tumor growth inhibition to tumor lysis"}, {"measurement": "variance in response to drug therapy", "setting": "[1]; 10 mg/kg IP Q4D×3", "result": "ranging from tumor lysis to slowed growth"}, {"measurement": "mice with delayed tumor growth", "setting": "[1]; Study C, 10 mg/kg IP Q4D×3", "result": "4/5"}, {"measurement": "mice with tumor regression", "setting": "[1]; Study C, 10 mg/kg IP Q4D×3", "result": "1/5"}, {"measurement": "tumor sizes or weight gain, day 1 vs day 14", "setting": "[1]; Treated Group B, 10 mg/kg IP Q4D×3", "result": "no significant difference in tumor sizes or weight gain"}, {"measurement": "weight gain between day 1 and day 14", "setting": "[1]; mouse, in vivo", "result": "no significant weight gain"}, {"measurement": "Wt, Day #1, MEAN", "setting": "[1]; mouse, in vivo, ip, 10 mg/kg", "result": 26.6}, {"measurement": "Wt, Day #14, MEAN", "setting": "[1]; mouse, in vivo, ip, 10 mg/kg", "result": 28.8}, {"measurement": "Tumor area, Day #1, MEAN", "setting": "[1]; treated, 10 mg/kg IP Q4D×3, S.E. ±5.1", "result": 60.3}, {"measurement": "Tumor area, Day #5, MEAN", "setting": "[1]; treated, 10 mg/kg IP Q4D×3, S.E. ±21.5", "result": 93}, {"measurement": "Tumor area, Day #9, MEAN", "setting": "[1]; treated, 10 mg/kg IP Q4D×3, S.E. ±23.6", "result": 105.6}, {"measurement": "Tumor area, Day #14, MEAN", "setting": "[1]; treated, 10 mg/kg IP Q4D×3, S.E. ±54.8", "result": 142}, {"measurement": "toxicity of dosage", "setting": "[2]; 10 mg/kg IP Q4D×3, neuroblastoma tumor bearing nude mice", "result": "non-toxic dosage"}, {"measurement": "toxicity of schedule", "setting": "[2]; 15 mg/kg every 4 hours×3 in one day", "result": "equally non-toxic"}, {"measurement": "toxicity of schedule", "setting": "[2]; 15 mg/kg every 4 days×3", "result": "equally non-toxic"}, {"measurement": "indications of toxicity (wasting or weight loss)", "setting": "[2]; Study B, 15 mg/kg IP Q4D×3", "result": "no indications of toxicity"}, {"measurement": "cytotoxicity at 0.1 µg/mL", "setting": "[3]; read-out: Taxol toxicity, VA-MG-SL, 0.1 μg/ml x 1 h, 5 days after exposure", "result": 58, "unit": "%"}, {"measurement": "cytotoxicity at 0.1 µg/mL", "setting": "[3]; read-out: Taxol toxicity, VA-MG-SL, 0.1 μg/ml x 4 h, 5 days after exposure", "result": 56, "unit": "%"}, {"measurement": "cytotoxicity at 0.1 µg/mL", "setting": "[3]; read-out: Taxol toxicity, VA-MG-SL, 0.1 μg/ml x 24 h, 5 days after exposure", "result": 58, "unit": "%"}, {"measurement": "cytotoxicity at 1 µg/mL", "setting": "[3]; read-out: Taxol toxicity, VA-MG-SL, 1.0 μg/ml x 1 h, 5 days after exposure", "result": 87, "unit": "%"}, {"measurement": "cytotoxicity at 1 µg/mL", "setting": "[3]; read-out: Taxol toxicity, VA-MG-SL, 1.0 μg/ml x 4 h, 5 days after exposure", "result": 90, "unit": "%"}, {"measurement": "cytotoxicity at 1 µg/mL", "setting": "[3]; read-out: Taxol toxicity, VA-MG-SL, 1.0 μg/ml x 24 h, 5 days after exposure", "result": 86, "unit": "%"}, {"measurement": "minimal effective concentration", "setting": "[3]; [8]", "result": "≥ 0.1", "unit": "µg/mL"}, {"measurement": "cytotoxicity at 0.1 µg/mL", "setting": "[4]; read-out: Taxol toxicity, VA-N-BR, 0.1 μg/ml x 1 h, 5 days after exposure", "result": 61, "unit": "%"}, {"measurement": "cytotoxicity at 0.1 µg/mL", "setting": "[4]; read-out: Taxol toxicity, VA-N-BR, 0.1 μg/ml x 4 h, 5 days after exposure", "result": 66, "unit": "%"}, {"measurement": "cytotoxicity at 0.1 µg/mL", "setting": "[4]; read-out: Taxol toxicity, VA-N-BR, 0.1 μg/ml x 24 h, 5 days after exposure", "result": 68, "unit": "%"}, {"measurement": "cytotoxicity at 1 µg/mL", "setting": "[4]; read-out: Taxol toxicity, VA-N-BR, 1.0 μg/ml x 1 h, 5 days after exposure", "result": 87, "unit": "%"}, {"measurement": "cytotoxicity at 1 µg/mL", "setting": "[4]; read-out: Taxol toxicity, VA-N-BR, 1.0 μg/ml x 4 h, 5 days after exposure", "result": 84, "unit": "%"}, {"measurement": "cytotoxicity at 1 µg/mL", "setting": "[4]; read-out: Taxol toxicity, VA-N-BR, 1.0 μg/ml x 24 h, 5 days after exposure", "result": 83, "unit": "%"}, {"measurement": "minimal effective concentration", "setting": "[4]; [8]", "result": "≥ 0.1", "unit": "µg/mL"}, {"measurement": "resilience of cell line to taxol (least/most resilient)", "setting": "[5]; 0.01-1.0 μg/ml", "result": "the most"}, {"measurement": "cytotoxicity at 0.1 µg/mL", "setting": "[5]; Homo sapiens, read-out: Taxol toxicity, SK-N-FI, 0.1 μg/ml x 1 h, 5 days after exposure", "result": 0, "unit": "%"}, {"measurement": "cytotoxicity at 0.1 µg/mL", "setting": "[5]; Homo sapiens, read-out: Taxol toxicity, SK-N-FI, 0.1 μg/ml x 4 h, 5 days after exposure", "result": 0, "unit": "%"}, {"measurement": "cytotoxicity at 0.1 µg/mL", "setting": "[5]; Homo sapiens, read-out: Taxol toxicity, SK-N-FI, 0.1 μg/ml x 24 h, 5 days after exposure, p < 0.05 vs 1 h", "result": 14, "unit": "%"}, {"measurement": "cytotoxicity at 1 µg/mL", "setting": "[5]; Homo sapiens, read-out: Taxol toxicity, SK-N-FI, 1.0 μg/ml x 1 h, 5 days after exposure", "result": 0, "unit": "%"}, {"measurement": "cytotoxicity at 1 µg/mL", "setting": "[5]; Homo sapiens, read-out: Taxol toxicity, SK-N-FI, 1.0 μg/ml x 4 h, 5 days after exposure", "result": 58, "unit": "%"}, {"measurement": "cytotoxicity at 1 µg/mL", "setting": "[5]; Homo sapiens, read-out: Taxol toxicity, SK-N-FI, 1.0 μg/ml x 24 h, 5 days after exposure, p < 0.05 vs 1 h", "result": 76, "unit": "%"}, {"measurement": "minimal effective concentration", "setting": "[5]; Homo sapiens, read-out: concentration at which cell line was affected", "result": "≥ 0.1", "unit": "µg/mL"}, {"measurement": "cytotoxicity at 0.1 µg/mL", "setting": "[6]; read-out: Taxol toxicity, U-373-MG, 0.1 μg/ml x 1 h, 5 days after exposure", "result": 46, "unit": "%"}, {"measurement": "cytotoxicity at 0.1 µg/mL", "setting": "[6]; read-out: Taxol toxicity, U-373-MG, 0.1 μg/ml x 4 h, 5 days after exposure", "result": 56, "unit": "%"}, {"measurement": "cytotoxicity at 0.1 µg/mL", "setting": "[6]; read-out: Taxol toxicity, U-373-MG, 0.1 μg/ml x 24 h, 5 days after exposure", "result": 57, "unit": "%"}, {"measurement": "cytotoxicity at 1 µg/mL", "setting": "[6]; read-out: Taxol toxicity, U-373-MG, 1.0 μg/ml x 1 h, 5 days after exposure", "result": 74, "unit": "%"}, {"measurement": "cytotoxicity at 1 µg/mL", "setting": "[6]; read-out: Taxol toxicity, U-373-MG, 1.0 μg/ml x 4 h, 5 days after exposure", "result": 79, "unit": "%"}, {"measurement": "cytotoxicity at 1 µg/mL", "setting": "[6]; read-out: Taxol toxicity, U-373-MG, 1.0 μg/ml x 24 h, 5 days after exposure", "result": 79, "unit": "%"}, {"measurement": "minimal effective concentration", "setting": "[6]; [8]", "result": "≥ 0.1", "unit": "µg/mL"}, {"measurement": "toxic reaction and side effects vs twenty-four hour infusion", "setting": "[7]; 45-120 mg/m^2, 60-180 minutes, Q4D×3", "result": "less toxic reaction and side effects than equivalent dosage levels over a twenty-four hour infusion"}, {"measurement": "maximum amount infused without exceeding toxicity limits", "setting": "[7]; 80 minute interval", "result": 120, "unit": "mg/m^2"}, {"measurement": "Alk. Phos. toxicity: A None", "setting": "[7]; Q4D 60 mg/m^2", "result": 18}, {"measurement": "Alk. Phos. toxicity: B Abnormal pre-III, Improved", "setting": "[7]; Q4D 60 mg/m^2", "result": 3}, {"measurement": "Alk. Phos. toxicity: C Abnormal pre-III, Worsened or same", "setting": "[7]; Q4D 60 mg/m^2", "result": 1}, {"measurement": "Alk. Phos. toxicity: D Normal pre-III, Worsened", "setting": "[7]; Q4D 60 mg/m^2", "result": 1}, {"measurement": "Alk. Phos. toxicity: E Grades", "setting": "[7]; Q4D 60 mg/m^2", "result": 1}, {"measurement": "Bilirubin toxicity: A None", "setting": "[7]; Q4D 60 mg/m^2", "result": 22}]}]}
